# Structures can show the parent of a compound that is named as a salt. Residues, ends and D or L forms follow the SMILES beside them.
# Tested on: HT29
# Conditions: 72 h, relative to DMSO, 10 µM, Relative cell viability (%)
# Excerpt: To investigate the key signaling pathways and biological processes involved in CRC progression, we analyzed the National Center for Biotechnology Information Gene Expression Omnibus (GEO) dataset GSE115313, which included 42 CRC and paired normal tissues (Figure 1A). […] Next, we performed an Annexin V‐fluorescein isothiocyanate (FITC)/propidium iodide (PI) staining assay to determine the effect of aripiprazole on apoptosis in CRC cells. […] A) Principal component analysis of GEO dataset (GSE115313), which includes 42 CRC and paired normal tissues. B) Gene Ontology pathway analysis of the DEPs between CRC and paired normal tissues. […] D) Schematic diagram for identifying anticancer drugs amongst an US Food and Drug Administration‐approved small‐molecule library (616 compounds) using WST‐1 assay. E) HT29 cells were treated with the 616 drugs (10 µM) individually or with dimethyl sulfoxide for 72 h, followed by WST‐1 assay. […] J) Mice bearing HT29‐derived tumor xenografts were intragastrically administered with aripiprazole (10 or 20 mg kg^−1) once every 2 d, n = 6 mice/group. […] Bars, SD; ^* p < 0.05; ^** p < 0.01; ^*** p < 0.001; ns, no significant difference. The WST‐1 Cell Proliferation and Cytotoxicity Assay Kit (Beyotime Biotechnology, Shanghai, China) was used to measure cell viability, as described previously.^[ [10] ^] CRC cells were seeded into 96‐well plates and treated with different drug concentrations. Following that, WST‐1 was added to the plate and incubated with the cells for 2 h, at 37 °C. Absorbance at the wavelength of 450 nm was measured using an automated microplate spectrophotometer (BioTek Instruments, Winooski, VT, USA).
row,Compound,Relative cell viability (%) [%]
1,COc1ccccc1Oc1c(NS(=O)(=O)c2ccc(C(C)(C)C)cc2)nc(-c2ncccn2)nc1OCCO [Bosentan Hydrate],83.98
2,CN1CCN(c2ccc3nc(-c4c(N)c5c(F)cccc5[nH]c4=O)[nH]c3c2)CC1 [Dovitinib (TKI-258) Dilactic Acid],12.62
3,CCN(C)C(=O)Oc1cccc([C@H](C)N(C)C)c1 [Rivastigmine Tartrate],125

# Same assay, conditions: 72 h, relative to DMSO; 10 µM
row,Compound,Relative cell viability (%) [%]
1,"CC[C@H](Nc1ncnc2[nH]cnc12)c1nc2cccc(F)c2c(=O)n1-c1ccccc1 [CAL-101 (Idelalisib, GS-1101)]",112.6
2,COc1cc2nc(N3CCN(C(=O)C4COc5ccccc5O4)CC3)nc(N)c2cc1OC (stereo not shown) [Doxazosin Mesylate],63.4
3,"Cn1cnc2c(F)c(Nc3ccc(Br)cc3F)c(C(=O)NOCCO)cc21 [MEK162 (ARRY-162, ARRY-438162)]",36.75
4,CCCCCCCCOc1ccccc1C(=O)Nc1ccc(C(=O)OCC[N+](C)(CC)CC)cc1 [Otilonium Bromide],59.22
5,Cc1c(Nc2ncccc2C(=O)O)cccc1C(F)(F)F [Flunixin Meglumin],128.5
6,COC(=O)[C@H](Cc1ccccc1)NC(=O)[C@@H](N)CC(=O)O [Aspartame] (H-Asp-Phe-OMe),199.9
7,CCC1=C(C)CN(C(=O)NCCc2ccc(S(=O)(=O)NC(=O)N[C@H]3CC[C@H](C)CC3)cc2)C1=O [Glimepiride],64.95
8,O=C(O)c1cccnc1 [Nicotinic Acid],70.34
9,Cc1c(-c2cnccn2)ssc1=S [Oltipraz],84.19
10,N#CC1(c2ccc(NC(=O)c3cccnc3NCc3ccncc3)cc2)CCCC1 [Apatinib],110.8
11,N#C[C@@H]1C[C@@H]2C[C@@H]2N1C(=O)[C@@H](N)C12CC3CC(CC(O)(C3)C1)C2 [Saxagliptin hydrate],117.5
12,CN1C(=O)CCS(=O)(=O)C1c1ccc(Cl)cc1 (stereo not shown) [Chlormezanone],142.8
13,CN(C)C(=O)COC(=O)Cc1ccc(OC(=O)c2ccc(NC(=N)N)cc2)cc1 [Camostat Mesilate],140.8
14,O=C(NC1CCN(CCCCC2(C(=O)NCC(F)(F)F)c3ccccc3-c3ccccc32)CC1)c1ccccc1-c1ccc(C(F)(F)F)cc1 [Lomitapide Mesylate],0
15,CCCc1nn(C)c2c(=O)[nH]c(-c3cc(S(=O)(=O)N4CCN(C)CC4)ccc3OCC)nc12 [Sildenafil Mesylate],91.88
16,Cc1cc(Nc2ncc(Cl)c(Nc3ccccc3S(=O)(=O)C(C)C)n2)c(OC(C)C)cc1C1CCNCC1 [LDK378],0
17,CO[C@H]1/C=C/O[C@@]2(C)Oc3c(C)c(O)c4c(O)c(c(/C=N/N5CCN(C)CC5)c(O)c4c3C2=O)NC(=O)/C(C)=C\C=C\[C@H](C)[C@H](O)[C@@H](C)[C@@H](O)[C@@H](C)[C@H](OC(C)=O)[C@@H]1C [Rifampin],76.69
18,Nc1ncn([C@@H]2O[C@H](CO)[C@@H](O)[C@H]2O)c(=O)n1 [Azacitidine],56.36
19,COC(=O)C1=CCCN(C)C1 [Arecoline],59.22
20,CCCC1O[C@@H]2C[C@H]3[C@@H]4CCC5=CC(=O)C=C[C@]5(C)[C@H]4[C@@H](O)C[C@]3(C)[C@]2(C(=O)CO)O1 (stereo partly shown) [Budesonide],83.64

row,Compound,Relative cell viability (%) [%]
1,Cc1nc(NC(=O)N2CCC[C@H]2C(N)=O)sc1-c1ccnc(C(C)(C)C(F)(F)F)c1 [BYL719],50.49
2,O=C(O)C[C@H](O)C[C@H](O)/C=C/c1c(C2CC2)nc2ccccc2c1-c1ccc(F)cc1 [Pitavastatin Calcium],44.92
3,CCOC(=O)[C@H](CCc1ccccc1)N[C@@H](C)C(=O)N1CCC[C@H]1C(=O)O [Enalapril Maleate],98.82
4,O=C(O)CSCC(=O)NC1CCSC1=O (stereo not shown) [Erdosteine],104.7
5,COc1cc(/C=C/C(=O)CC(=O)/C=C/c2ccc(O)c(OC)c2)ccc1O [Curcumin],46.19
6,CC(C)(CO)[C@@H](O)C(=O)NCCCO [D panthenol],121.4
7,CC(=O)OCC[N+](C)(C)C [Acetylcholine Chloride],93.22
8,NC1=NCC2c3ccccc3Cc3ccccc3N12 (stereo not shown) [Epinastine HCl],78.48
9,O=C(O)CCNC(=O)c1ccccc1 [Betamipron],90.303
10,COc1cc(OC)c(/C=C/S(=O)(=O)Cc2ccc(OC)c(NCC(=O)O)c2)c(OC)c1 [Rigosertib (ON-01910)],4.206
11,O=C(NC(Cc1cc(=O)[nH]c2ccccc12)C(=O)O)c1ccc(Cl)cc1 (stereo not shown) [Rebamipide],125.4
12,CCCN[C@H]1CCc2nc(N)sc2C1 [Pramipexole dihydrochloride monohydrate],205.2
13,CC(C)=CCC/C(C)=C/CC/C(C)=C/CSc1ccccc1C(=O)O [Salirasib],84.19
14,CN/C(=N/CCSCc1nc[nH]c1C)NC#N [Cimetidine],97.03
15,CC(C)C[C@H](NC(=O)CNC(=O)c1cc(Cl)ccc1Cl)B(O)O [MLN2238],125
16,COC(=O)C1=C(C#N)NC(C)=C(C(=O)OC(C)C)C1c1cccc([N+](=O)[O-])c1 (stereo not shown) [Nilvadipine],81.07
17,O=C1CCc2ccc(OCCCCN3CCN(c4cccc(Cl)c4Cl)CC3)cc2N1 [aripiprazole],49.03
18,CC(C)N(CCNC(=O)CN1CCCC1=O)C(C)C [Pramiracetam],79.61
19,NC(=O)OCC(COC(N)=O)c1ccccc1 [Felbamate],69.63
20,Oc1c(Br)cc(Br)c2cccnc12 [Broxyquinoline],83.94

row,Compound,Relative cell viability (%) [%]
1,C#C[C@]1(O)C=C[C@H]2[C@@H]3CCC4=CC(=O)CC[C@@H]4[C@H]3CC[C@@]21CC [Gestodene],69.63
2,COc1ccc(C[C@@H](C)NC[C@H](O)c2ccc(O)c(NC=O)c2)cc1 (racemic) [Formoterol Hemifumarate],95.63
3,O=c1[nH]c(=O)n([C@H]2C[C@H](O)[C@@H](CO)O2)cc1C(F)(F)F [Trifluridine],53.81
4,O=C(O)CCCN1CCC(O[C@@H](c2ccc(Cl)cc2)c2ccccn2)CC1 [Bepotastine Besilate],89.81
5,[H]/N=C(\N/C(=N/[H])NCCCCCCNC(=N)NC(=N)Nc1ccc(Cl)cc1)Nc1ccc(Cl)cc1 [Chlorhexidine HCl],28.64
6,O=C(/C=C\n1cnc(-c2cc(C(F)(F)F)cc(C(F)(F)F)c2)n1)NNc1cnccn1 [KPT-330],44.44
7,COc1ccc(NS(=O)(=O)c2ccc(N)cc2)nn1 [Sulfamethoxypyridazine],72.12
8,NC(CO)C(=O)NNCc1ccc(O)c(O)c1O (stereo not shown) [Benserazide HCl],108.4
9,O=C(O)c1cn(-c2ccc(F)cc2)c2cc(N3CCNCC3)c(F)cc2c1=O [Sarafloxacin HCl],85.35
10,CC[C@@H]1C(=O)N(C)c2cnc(Nc3ccc(C(=O)N[C@H]4CC[C@H](N5CCN(CC6CC6)CC5)CC4)cc3OC)nc2N1C(C)C [Volasertib (BI 6727)],88.41
11,O=C(O)CCc1nc(-c2ccccc2)c(-c2ccccc2)o1 [Oxaprozin],63.03
12,CCOC(=O)[C@H]1O[C@@H]1C(=O)N[C@@H](CC(C)C)C(=O)NCCC(C)C [Aloxistatin],100.9
13,C[C@@H]1CC[C@H]2[C@@H](C)C(=O)O[C@@H]3O[C@@]4(C)CC[C@@H]1[C@]32OO4 [Artemisinin],110.1
14,"C[C@@H](CN1CC(=O)NC(=O)C1)N1CC(=O)NC(=O)C1 [Dexrazoxane HCl (ICRF-187, ADR-529)]",75.86
15,Nc1nccs1 [Aminothiazole],93.03
16,O=C(C[S+]([O-])Cc1ccco1)NC/C=C\COc1cc(CN2CCCCC2)ccn1 (stereo not shown) [Lafutidine],119.6
17,Clc1ccc(COC(Cn2ccnc2)c2ccc(Cl)cc2Cl)c(Cl)c1 (stereo not shown) [Miconazole Nitrate],184.3
18,CC(C(=O)O)c1ccc2c(c1)Cc1cccnc1O2 (stereo not shown) [Pranoprofen],135
19,O=c1cc[nH]c(=O)[nH]1 [Uracil],73.94

# Same assay, conditions: ht29 cells, 72 h, 10 µM
row,Compound,Relative cell viability (%) [%]
1,O=C(Nc1nc2cccc(-c3ccc(CN4CCS(=O)(=O)CC4)cc3)n2n1)C1CC1 [Filgotinib (GLPG0634)],50.85
2,CC[C@H]1OC(=O)[C@H](C)[C@@H](O[C@H]2C[C@@](C)(OC)[C@@H](O)[C@H](C)O2)[C@H](C)[C@@H](O[C@@H]2O[C@H](C)C[C@H](N(C)C)[C@H]2O)[C@](C)(O)C[C@@H](C)[C@@H]2N[C@@H](COCCOC)O[C@H]([C@H]2C)[C@]1(C)O [Dirithromycin],84.85
